Test results from patent US20210261512A1, “NOVEL COMPOUNDS” (INFLAZOME LIMITED, priority 2018, published 2021).

What was measured:
NLRP3 [1] = molecular target: T1, NLRP3 (Homo sapiens, UniProt Q96P20); experiment: Human whole blood IL1β release assay; assay type: cell-based; conditions: LPS 1 μg/ml, nigericin 10 μM, IL-1β AlphaLisa, 10 μM top dose (Example 2: top dose of 30 μM), read-out: HWB IC50
In short: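 Healthy-donor heparinised human whole blood with 1 μg/ml LPS, compound (8-point half-log dilution, 10 μM top dose unless stated; 0.1% DMSO vehicle) for 3 h at 37 °C, then nigericin 10 μM final for 1 h. Supernatant IL-1β by AlphaLISA; IC50 from 4-parameter variable-slope fit.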

NLRP3 [2] = molecular target: T1, NLRP3; experiment: THP-1 cells pyroptosis assay; assay type: cell-based; parameters: Seed THP-1 cells (25,000 cells/well) containing 1.0 μg/ml LPS; host or cells: THP-1; conditions: LPS 1.0 μg/ml, nigericin 5 μM, resazurin readout, 10 μM top dose (Example 2: top dose of 30 μM)
In short: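 Pyroptosis induced by 5 μM nigericin (1 h) in LPS-primed (1 μg/ml) THP-1 cells, 25,000/well in serum-free RPMI, after 3 h compound pre-treatment (8 points, 10 μM top unless stated). Surviving cells measured with 100 μM resazurin, Ex 560/Em 590; IC50 via variable-slope 4-parameter regression.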

T1 sequence (Q96P20 whole entry): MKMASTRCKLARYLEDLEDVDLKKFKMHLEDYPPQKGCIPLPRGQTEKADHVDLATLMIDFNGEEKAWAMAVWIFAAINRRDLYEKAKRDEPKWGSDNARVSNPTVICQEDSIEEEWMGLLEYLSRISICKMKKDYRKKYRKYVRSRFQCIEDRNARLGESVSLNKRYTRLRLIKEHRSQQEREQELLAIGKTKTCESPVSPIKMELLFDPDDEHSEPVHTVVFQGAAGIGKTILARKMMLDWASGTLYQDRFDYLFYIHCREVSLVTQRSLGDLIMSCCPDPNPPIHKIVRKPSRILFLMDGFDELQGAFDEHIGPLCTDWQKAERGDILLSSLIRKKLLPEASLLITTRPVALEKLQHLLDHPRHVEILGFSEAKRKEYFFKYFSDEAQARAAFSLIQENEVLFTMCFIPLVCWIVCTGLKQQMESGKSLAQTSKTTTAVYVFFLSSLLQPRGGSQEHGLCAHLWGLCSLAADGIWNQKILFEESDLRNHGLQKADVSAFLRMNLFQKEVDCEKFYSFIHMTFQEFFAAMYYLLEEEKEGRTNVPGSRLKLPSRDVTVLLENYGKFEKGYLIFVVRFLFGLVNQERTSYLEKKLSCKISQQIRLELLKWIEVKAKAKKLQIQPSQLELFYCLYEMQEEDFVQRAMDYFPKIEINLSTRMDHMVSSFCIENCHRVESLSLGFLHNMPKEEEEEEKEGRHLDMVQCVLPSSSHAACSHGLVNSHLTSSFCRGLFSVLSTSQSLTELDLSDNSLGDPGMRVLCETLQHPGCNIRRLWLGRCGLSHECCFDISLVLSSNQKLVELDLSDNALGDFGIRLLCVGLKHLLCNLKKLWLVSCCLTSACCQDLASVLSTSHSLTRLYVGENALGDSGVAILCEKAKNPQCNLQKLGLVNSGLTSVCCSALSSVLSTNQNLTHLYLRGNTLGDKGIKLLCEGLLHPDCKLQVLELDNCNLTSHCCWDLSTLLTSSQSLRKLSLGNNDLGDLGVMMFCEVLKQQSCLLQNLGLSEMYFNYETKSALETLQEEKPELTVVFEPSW

Q: Which results are given for COc1cc(-c2cc(F)cc(C(C)C)c2Nc2nnc(S(=O)(=O)N3CCC(N(C)C)CC3)[nH]2)ccn1 [Example 261, 1-((5-((4-fluoro-2-isopropyl-6-(2-methoxypyridin-4-yl)phenyl)amino)-4H-1,2,4-triazol-3-yl)sulfonyl)-N,N-dimethylpiperidin-4-amine]?
A: IC50 (NLRP3 [1]): ≤ 1000 nM; IC50 (NLRP3 [2]): ≤ 500 nM

Q: What does the source list for O=S(=O)(c1nnc(Nc2c3c(cc4c2CCC4)CCC3)[nH]1)N1CCC2(CCCN2C2CC2)CC1 [Example 246, 5-((1-cyclopropyl-1,8-diazaspiro[4.5]decan-8-yl)sulfonyl)-N-(1,2,3,5,6,7-hexahydro-s-indacen-4-yl)-4H-1,2,4-triazol-3-amine]?
A: IC50 (NLRP3 [1]): ≤ 5000 nM; IC50 (NLRP3 [2]): ≤ 1000 nM

Q: What does the source list for CN(C)C(=O)Cn1ccc(S(=O)(=O)c2nnc(Nc3c4c(cc5c3CCC5)CCC4)[nH]2)n1 [Example 320, 2-(3-((5-((1,2,3,5,6,7-hexahydro-s-indacen-4-yl)amino)-4H-1,2,4-triazol-3-yl)sulfonyl)-1H-pyrazol-1-yl)-N,N-dimethylacetamide]?
A: IC50 (NLRP3 [1]): ≤ 5000 nM; IC50 (NLRP3 [2]): ≤ 500 nM

Q: With CCN(CC)CCS(=O)(=O)c1nnc(Nc2c3c(cc4c2CCC4)CCC3)[nH]1 [Example 46, 5-((2-(diethylamino)ethyl)sulfonyl)-N-(1,2,3,5,6,7-hexahydro-s-indacen-4-yl)-4H-1,2,4-triazol-3-amine] as the molecule, how does the IC50 (NLRP3 [1]) read?
A: ≤ 5000 nM

Q: And the IC50 (NLRP3 [2])?
A: ≤ 1000 nM

Q: For NS(=O)(=O)c1ccc(S(=O)(=O)c2nnc(Nc3c4c(cc5c3CCC5)CCC4)[nH]2)cc1 [Example 366, 4-((5-((1,2,3,5,6,7-hexahydro-s-indacen-4-yl)amino)-4H-1,2,4-triazol-3-yl)sulfonyl)benzenesulfonamide], which IC50 (NLRP3 [1]) is on record?
A: ≤ 10000 nM

Q: And the IC50 (NLRP3 [2])?
A: ≤ 500 nM

Q: Which results are given for CN1CCCC12CCN(S(=O)(=O)c1nnc(Nc3c(-c4ccnc(OC(F)F)c4)ccc4c3CCO4)[nH]1)CC2 [Example 210, N-(5-(2-(difluoromethoxy)pyridin-4-yl)-2,3-dihydrobenzofuran-4-yl)-5-((1-methyl-1,8-diazaspiro[4.5]decan-8-yl)sulfonyl)-4H-1,2,4-triazol-3-amine]?
A: IC50 (NLRP3 [1]): ≤ 5000 nM; IC50 (NLRP3 [2]): ≤ 500 nM

Q: For CN(C)C1CCN(S(=O)(=O)c2nnc(Nc3c(-c4ccnc(OC(F)F)c4)ccc4c3CCC4)[nH]2)CC1 [Example 222, 1-((5-((5-(2-(difluoromethoxy)pyridin-4-yl)-2,3-dihydro-1H-inden-4-yl)amino)-4H-1,2,4-triazol-3-yl)sulfonyl)-N,N-dimethylpiperidin-4-amine], which IC50 (NLRP3 [1]) is on record?
A: ≤ 1000 nM

Q: What about the IC50 (NLRP3 [2]) of the same molecule?
A: ≤ 500 nM

Q: What does the source list for CNC[C@H]1CCN(S(=O)(=O)c2nnc(Nc3c4c(cc5c3CCC5)CCC4)[nH]2)C1 [Example 288, (R)—N-(1,2,3,5,6,7-hexahydro-s-indacen-4-yl)-5-((3-((methylamino)methyl)pyrrolidin-1-yl)sulfonyl)-4H-1,2,4-triazol-3-amine]?
A: IC50 (NLRP3 [1]): ≤ 1000 nM; IC50 (NLRP3 [2]): ≤ 500 nM

Q: What does the source list for O=S(=O)(c1nnc(Nc2c3c(cc4c2CCC4)CCC3)[nH]1)N1CC2(CCN(CCF)C2)C1 [Example 239, 5-((6-(2-fluoroethyl)-2,6-diazaspiro[3.4]octan-2-yl)sulfonyl)-N-(1,2,3,5,6,7-hexahydro-s-indacen-4-yl)-4H-1,2,4-triazol-3-amine]?
A: IC50 (NLRP3 [1]): ≤ 5000 nM; IC50 (NLRP3 [2]): ≤ 1000 nM

Q: How did the IC50 (NLRP3 [1]) turn out when CCN(CC)CCCS(=O)(=O)c1nnc(Nc2c(-c3ccncc3)cc(F)c3c2CCC3)[nH]1 [Example 77, 5-((3-(diethylamino)propyl)sulfonyl)-N-(7-fluoro-5-(pyridin-4-yl)-2,3-dihydro-1H-inden-4-yl)-4H-1,2,4-triazol-3-amine] was run?
A: ≤ 5000 nM

Q: And the IC50 (NLRP3 [2])?
A: ≤ 1000 nM

Q: Which results are given for CN1CCCC(CNS(=O)(=O)c2nnc(Nc3c4c(cc5c3CCC5)CCC4)[nH]2)C1 (stereo not drawn) [Example 128, 5-((1,2,3,5,6,7-hexahydro-s-indacen-4-yl)amino)-N-((1-methylpiperidin-3-yl)methyl)-4H-1,2,4-triazole-3-sulfonamide]?
A: IC50 (NLRP3 [1]): ≤ 10000 nM; IC50 (NLRP3 [2]): ≤ 1000 nM

Q: What does the source list for O=S(=O)(Cc1ccccc1)c1nnc(Nc2c3c(cc4c2CCC4)CCC3)[nH]1 [Example 2, 5-(benzylsulfonyl)-N-(1,2,3,5,6,7-hexahydro-s-indacen-4-yl)-4H-1,2,4-triazol-3-amine]?
A: IC50 (NLRP3 [1]): ≤ 30000 nM; IC50 (NLRP3 [2]): ≤ 10000 nM

Q: With COc1cc(-c2ccc3c(c2Nc2nnc(S(=O)(=O)c4ccn(C)n4)[nH]2)CCC3)ccn1 [Example 339, N-(5-(2-methoxypyridin-4-yl)-2,3-dihydro-1H-inden-4-yl)-5-((1-methyl-1H-pyrazol-3-yl)sulfonyl)-4H-1,2,4-triazol-3-amine] as the molecule, how does the IC50 (NLRP3 [1]) read?
A: ≤ 5000 nM

Q: What about the IC50 (NLRP3 [2]) of the same molecule?
A: ≤ 1000 nM

Q: How did the IC50 (NLRP3 [1]) turn out when [2H]C([2H])([2H])Oc1cc(-c2ccc3c(c2Nc2nnc(S(=O)(=O)N4CC5(CCN(C)C5)C4)[nH]2)CCO3)ccn1 [Example 195, N-(5-(2-(methoxy-d)pyridin-4-yl)-2,3-dihydrobenzofuran-4-yl)-5-((6-methyl-2,6-diazaspiro[3-4]octan-2-yl)sulfonyl)-4H-1,2,4-triazol-3-amine] was run?
A: ≤ 500 nM

Q: What about the IC50 (NLRP3 [2]) of the same molecule?
A: ≤ 500 nM

Q: What does the source list for CC(C)n1ccc(S(=O)(=O)c2nnc(Nc3c(-c4ccncc4)cc(F)c4c3CCC4)[nH]2)n1 [Example 36, N-(7-fluoro-5-(pyridin-4-yl)-2,3-dihydro-1H-inden-4-yl)-5-((1-isopropyl-1H-pyrazol-3-yl)sulfonyl)-4H-1,2,4-triazol-3-amine]?
A: IC50 (NLRP3 [1]): ≤ 10000 nM; IC50 (NLRP3 [2]): ≤ 5000 nM

Q: Which IC50 (NLRP3 [1]) does the source give for NC(=O)c1cccc(S(=O)(=O)c2nnc(Nc3c4c(cc5c3CCC5)CCC4)[nH]2)c1 [Example 341, 3-((5-((1,2,3,5,6,7-hexahydro-s-indacen-4-yl)amino)-4H-1,2,4-triazol-3-yl)sulfonyl)benzamide] here?
A: ≤ 10000 nM

Q: What about the IC50 (NLRP3 [2]) of the same molecule?
A: ≤ 500 nM

Q: How did the IC50 (NLRP3 [1]) turn out when CN1CCC12CCN(S(=O)(=O)c1nnc(Nc3c(-c4ccnc(OC(F)F)c4)ccc4c3CCC4)[nH]1)CC2 [Example 200, N-(5-(2-(difluoromethoxy)pyridin-4-yl)-2,3-dihydro-1H-inden-4-yl)-5-((1-methyl-1,7-diazaspiro[3.5]nonan-7-yl)sulfonyl)-4H-1,2,4-triazol-3-amine] was run?
A: ≤ 5000 nM

Q: And the IC50 (NLRP3 [2])?
A: ≤ 500 nM

Q: For CN1CC2(C1)CN(S(=O)(=O)c1nnc(Nc3c4c(cc5c3CCC5)CCC4)[nH]1)C2 [Example 137, N-(1,2,3,5,6,7-hexahydro-s-indacen-4-yl)-5-((6-methyl-2,6-diazaspiro[3.3]heptan-2-yl)sulfonyl)-4H-1,2,4-triazol-3-amine], which IC50 (NLRP3 [1]) is on record?
A: ≤ 500 nM

Q: What about the IC50 (NLRP3 [2]) of the same molecule?
A: ≤ 500 nM

Q: For CC(O)Cn1ccc(S(=O)(=O)c2nnc(Nc3c4c(cc5c3CCC5)CCC4)[nH]2)n1 (stereo not drawn) [Example 352, 1-(3-((5-((1,2,3,5,6,7-hexahydro-s-indacen-4-yl)amino)-4H-1,2,4-triazol-3-yl)sulfonyl)-1H-pyrazol-1-yl)propan-2-ol], which IC50 (NLRP3 [1]) is on record?
A: ≤ 10000 nM

Q: And the IC50 (NLRP3 [2])?
A: ≤ 500 nM

Q: CCNC[C@H]1CCN(S(=O)(=O)c2nnc(Nc3c4c(cc5c3CCC5)CCC4)[nH]2)C1 [Example 308, (R)-5-((3-((ethylamino)methyl)pyrrolidin-1-yl)sulfonyl)-N-(1,2,3,5,6,7-hexahydro-s-indacen-4-yl)-4H-1,2,4-triazol-3-amine] was tested. Which IC50 (NLRP3 [1]) did it give?
A: ≤ 5000 nM

Q: What about the IC50 (NLRP3 [2]) of the same molecule?
A: ≤ 500 nM

Q: What does the source list for O=S(=O)(c1nnc(Nc2c3c(cc4c2CCC4)CCC3)[nH]1)c1ccccc1F [Example 179, 5-((2-fluorophenyl)sulfonyl)-N-(1,2,3,5,6,7-hexahydro-s-indacen-4-yl)-4H-1,2,4-triazol-3-amine]?
A: IC50 (NLRP3 [1]): ≤ 10000 nM; IC50 (NLRP3 [2]): ≤ 1000 nM
